This note sets out measurements from US9359367B2, “Tetrahydroquinazolinone derivatives as PARP inhibitors” (Lupin Limited, priority 2012, dated 2016).

The assay deals with T1, PARP1 (Homo sapiens, UniProt P09874).
T1 construct: purchased BPS Bioscience
T1 sequence (P09874 whole entry): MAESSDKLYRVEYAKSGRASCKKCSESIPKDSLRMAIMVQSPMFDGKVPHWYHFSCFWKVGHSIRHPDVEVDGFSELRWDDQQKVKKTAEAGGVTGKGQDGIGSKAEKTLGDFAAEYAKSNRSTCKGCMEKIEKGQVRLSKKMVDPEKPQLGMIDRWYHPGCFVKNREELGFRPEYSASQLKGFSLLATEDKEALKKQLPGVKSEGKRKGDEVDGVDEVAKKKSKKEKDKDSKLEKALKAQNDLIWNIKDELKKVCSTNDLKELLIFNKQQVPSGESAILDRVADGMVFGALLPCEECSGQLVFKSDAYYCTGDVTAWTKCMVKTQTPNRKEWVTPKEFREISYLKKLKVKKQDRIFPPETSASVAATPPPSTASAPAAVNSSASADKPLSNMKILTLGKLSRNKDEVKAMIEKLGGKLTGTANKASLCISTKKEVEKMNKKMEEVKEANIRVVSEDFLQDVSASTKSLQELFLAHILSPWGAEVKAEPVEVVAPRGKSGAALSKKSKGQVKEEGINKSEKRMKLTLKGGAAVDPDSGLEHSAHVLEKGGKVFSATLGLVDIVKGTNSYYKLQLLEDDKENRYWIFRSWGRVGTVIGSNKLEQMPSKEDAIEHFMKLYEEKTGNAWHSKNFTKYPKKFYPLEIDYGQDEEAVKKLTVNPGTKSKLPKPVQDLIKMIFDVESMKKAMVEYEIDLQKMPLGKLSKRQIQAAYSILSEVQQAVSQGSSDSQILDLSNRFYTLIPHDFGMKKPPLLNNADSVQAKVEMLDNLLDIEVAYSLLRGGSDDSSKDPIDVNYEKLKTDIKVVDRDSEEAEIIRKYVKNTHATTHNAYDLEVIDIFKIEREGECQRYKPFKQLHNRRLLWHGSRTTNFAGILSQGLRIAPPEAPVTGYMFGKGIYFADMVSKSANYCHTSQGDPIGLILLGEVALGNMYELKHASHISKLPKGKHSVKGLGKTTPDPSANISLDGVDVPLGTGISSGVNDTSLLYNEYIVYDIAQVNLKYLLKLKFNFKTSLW
Kind of assay: PARP1 Biochemical Assay (BPS Bioscience kit, chemiluminescence). The conditions noted are these: histone-coated plate, biotinilated NAD+, 25° C. for 60 min, luminescence, read-out: PARP 1 inhibition IC50. How it is done: The assay was performed using BPS Bioscience kit. The 96-well strip plate was coated with 50 μl of histone mixture and incubated at 4° C. overnight. Next day the wells were blocked by adding 100 μl of blocking buffer. The plate was washed and 25 μl of appropriate concentration of PARP1 (25-75 ng/well) was added in all the Test and Positive control wells. In Negative control wells enzyme was replaced with 25 μl of water. To it 5 μl each of 10×PARP assay buffer and activated DNA was added in all the wells (Test, Positive and Negative control wells). 10× concentration of test compounds were prepared and 5 μl test compounds were added respective wells. Reaction volume was made up to 45 μl by adding water to all the wells. Finally, 5 μl of 10×PARP assay mixture containing biotinilated NAD^+ was added in each well and the plate was incubated at ambient temperature (25° C.) for 60 min. After washing the plate 50 μl of Streptavidin-HRP was added in each well and incubated the plate at RT for 30 min. The plate was washed and the luminescence was read in PHERAStar plate reader after adding 100 μl of chemiluminescent substrate.
PARP inhibition was calculated using the following formula: % PARP inhibition=100−[(RLU test compound treated sample−RLU negative control)/(RLU Positive control−RLU negative control)×100]
IC50 values were calculated by plotting % inhibition against the respective concentrations of test compounds using GraphPad Prism 5.
Broadly, the IC50 is the point on the concentration scale where inhibition reaches its midpoint. Turning to `CNC(=O)c1ccc(N2CCN([C@H]3C=C(c4nc5c(c(=O)[nH]4)CC4(CC5)CC4)CC3)CC2)c(F)c1` [Compound 68, (R)-3-fluoro-N-methyl-4-(4-(3-(4′-oxo-4′,5′,7′,8′-tetrahydro-3′H-spiro[cyclopropane-1,6′-quinazolin]-2′-yl)cyclopent-2-en-1-yl)piperazin-1-yl)benzamide], the IC50 fell in the range of 1 to 500 nM. To `Cc1cc(F)cc(N2CCN([C@H]3C=C(c4nc5c(c(=O)[nH]4)CC4(CC5)CC4)CC3)CC2)c1` [Compound 126, (R)-2′-(3-(4-(3-fluoro-5-methylphenyl)piperazin-1-yl)cyclopent-1-en-1-yl)-7′,8′-dihydro-3′H-spiro[cyclopropane-1,6′-quinazolin]-4′(5′H)-one] belongs 501 to 5000 nM; to `O=c1[nH]c(C2=C[C@H](N3CCN(c4ccc(Cl)cc4Cl)CC3)CC2)nc2c1CC1(CC2)CC1` [Compound 65, (R)-2′-(3-(4-(2,4-dichlorophenyl)piperazin-1-yl)cyclopent-1-en-1-yl)-7′,8′-dihydro-3′H-spiro[cyclopropane-1,6′-quinazolin]-4′(5′H)-one], 1 to 500 nM. Take `O=c1[nH]c(CCCN2CCN(c3ccc(F)cc3)CC2)nc2c1CCC1(CC1)C2` [Compound 15, 2′-(3-(4-(4-fluorophenyl)piperazin-1-yl)propyl)-5′,6′-dihydro-3′H-spiro[cyclopropane-1,7′-quinazolin]-4′(8′H)-one]: the concentration for half-maximal inhibition (IC50) fell in the range of 5000 to 500000 nM. In the case of `O=c1[nH]c(CCCN2C3CCC2CN(c2ccc(F)cc2)C3)nc2c1CC1(CC2)CC1` [Compound 7, 2′-(3-(3-(4-fluorophenyl)-3,8-diazabicyclo[3.2.1]octan-8-yl)propyl)-7′,8′-dihydro-3′H-spiro[cyclopropane-1,6′-quinazolin]-4′(5′H)-one] it was 1 to 500 nM; in that of `Cc1nc2ccc(N3CCN([C@H]4C=C(c5nc6c(c(=O)[nH]5)CC5(CC6)CC5)CC4)CC3)cc2s1` [Compound 81, (R)-2′-(3-(4-(2-methylbenzo[d]thiazol-6-yl)piperazin-1-yl)cyclopent-1-en-1-yl)-7′,8′-dihydro-3′H-spiro[cyclopropane-1,6′-quinazolin]-4′(5′H)-one], 501 to 5000 nM; in that of `O=c1[nH]c(CCCN2CCN(c3ccc(Cl)cc3)CC2)nc2c1CC1(CC2)CC1` [Compound 6, 2′-(3-(4-(4-chlorophenyl)piperazin-1-yl)propyl)-7′,8′-dihydro-3′H-spiro[cyclopropane-1,6′-quinazolin]-4′(5′H)-one], 1 to 500 nM.

In the case of `O=C(NC1CC1)c1ccc(N2CCN(C3C=C(c4nc5c(c(=O)[nH]4)CC4(CC5)CC4)CC3)CC2)cc1` (centres unmarked) [Compound 44, N-cyclopropyl-4-(4-(3-(4′-oxo-4′,5′,7′,8′-tetrahydro-3′H-spiro[cyclopropane-1,6′-quinazolin]-2′-yl)cyclopent-2-en-1-yl)piperazin-1-yl)benzamide], the IC50 lay within 1 to 500 nM. In the case of `O=c1[nH]c(C2=C[C@H](N3CCN(c4cc(F)cc(F)c4)CC3)CC2)nc2c1CC1(CC2)CC1` [Compound 109, (R)-2′-(3-(4-(3,5-difluorophenyl)piperazin-1-yl)cyclopent-1-en-1-yl)-7′,8′-dihydro-3′H-spiro[cyclopropane-1,6′-quinazolin]-4′(5′H)-one] it was 1 to 500 nM; in that of `O=c1[nH]c(CCCN2CC=C(c3ccccc3)CC2)nc2c1CCCC21CC1` [Compound 3, 2′-(3-(4-phenyl-5,6-dihydropyridin-1(2H)-yl)propyl)-6′,7′-dihydro-3′H-spiro[cyclopropane-1,8′-quinazolin]-4′(5′H)-one], 1 to 500 nM; in that of `CC(CCc1nc2c(c(=O)[nH]1)CC1(CC2)CC1)N1CCN(c2ccc(F)cc2)CC1` (centres unmarked) [Compound 21, 2′-(3-(4-(4-fluorophenyl)piperazin-1-yl)butyl)-7′,8′-dihydro-3′H-spiro[cyclopropane-1,6′-quinazolin]-4′(5′H)-one], 1 to 500 nM. As for `CC1CN(c2ccc(F)cc2)CCN1CCCc1nc2c(c(=O)[nH]1)CC1(CC2)CC1` (centres unmarked) [Compound 27, 2′-(3-(4-(4-fluorophenyl)-2-methylpiperazin-1-yl)propyl)-7′,8′-dihydro-3′H-spiro[cyclopropane-1,6′-quinazolin]-4′(5′H)-one], the IC50 was in the range of 1 to 500 nM.

Take `CC1(C)CN(c2ccc(F)cc2)CCN1[C@H]1C=C(c2nc3c(c(=O)[nH]2)CC2(CC3)CC2)CC1` [Compound 67, (R)-2′-(3-(4-(4-fluorophenyl)-2,2-dimethylpiperazin-1-yl)cyclopent-1-en-1-yl)-7′,8′-dihydro-3′H-spiro[cyclopropane-1,6′-quinazolin]-4′(5′H)-one]: the IC50 lay in the range of 5000 to 500000 nM. In the case of `O=c1[nH]c(C2=C[C@H](N3CCN(c4cccc(F)c4Cl)CC3)CC2)nc2c1CC1(CC2)CC1` [Compound 93, (R)-2′-(3-(4-(2-chloro-3-fluorophenyl)piperazin-1-yl)cyclopent-1-en-1-yl)-7′,8′-dihydro-3′H-spiro[cyclopropane-1,6′-quinazolin]-4′(5′H)-one] it was 1 to 500 nM; in that of `CNC(=O)c1ccc(N2CCN([C@H]3C=C(c4nc5c(c(=O)[nH]4)CC4(CC5)CC4)CC3)CC2)nc1` [Compound 76, (R)—N-methyl-6-(4-(3-(4′-oxo-4′,5′,7′,8′-tetrahydro-3′H-spiro[cyclopropane-1,6′-quinazolin]-2′-yl)cyclopent-2-en-1-yl)piperazin-1-yl)nicotinamide], 1 to 500 nM. In the case of `O=c1[nH]c(C2=C[C@H](N3CCN(c4cccc(F)c4F)CC3)CC2)nc2c1CC1(CC2)CC1` [Compound 100, (R)-2′-(3-(4-(2,3-difluorophenyl)piperazin-1-yl)cyclopent-1-en-1-yl)-7′,8′-dihydro-3′H-spiro[cyclopropane-1,6′-quinazolin]-4′(5′H)-one], the IC50 lay in the range of 1 to 500 nM. Regarding `CNC(=O)c1ccc(N2CCN([C@H]3C=C(c4nc5c(c(=O)[nH]4)CC4(CC5)CC4)CC3)CC2)c(Cl)c1` [Compound 134, (R)-3-chloro-N-methyl-4-(4-(3-(4′-oxo-4′,5′,7′,8′-tetrahydro-3′H-spiro[cyclopropane-1,6′-quinazolin]-2′-yl)cyclopent-2-en-1-yl)piperazin-1-yl)benzamide], the IC50 was in the range of 1 to 500 nM. In the case of `Cc1cccnc1N1CCN([C@H]2C=C(c3nc4c(c(=O)[nH]3)CC3(CC4)CC3)CC2)CC1` [Compound 132, (R)-2′-(3-(4-(3-methylpyridin-2-yl)piperazin-1-yl)cyclopent-1-en-1-yl)-7′,8′-dihydro-3′H-spiro[cyclopropane-1,6′-quinazolin]-4′(5′H)-one] it was 1 to 500 nM; in that of `O=c1[nH]c([C@@H]2CC[C@H](N3CCN(c4ccc(F)cc4)CC3)C2)nc2c1CC1(CC2)CC1` [Compound 150, 2′-((1R,3S)-3-(4-(4-fluorophenyl)piperazin-1-yl)cyclopentyl)-7′,8′-dihydro-3′H-spiro[cyclopropane-1,6′-quinazolin]-4′(5′H)-one], 1 to 500 nM; in that of `N#Cc1ccc(N2CCN([C@H]3C=C(c4nc5c(c(=O)[nH]4)CC4(CC5)CC4)CC3)CC2)c(F)c1` [Compound 111, (R)-3-fluoro-4-(4-(3-(4′-oxo-4′,5′,7′,8′-tetrahydro-3′H-spiro[cyclopropane-1,6′-quinazolin]-2′-yl)cyclopent-2-en-1-yl)piperazin-1-yl)benzonitrile], 1 to 500 nM. For the compound `Cc1cc(N2CCN([C@H]3C=C(c4nc5c(c(=O)[nH]4)CC4(CC5)CC4)CC3)CC2)ccc1F` [Compound 80, (R)-2′-(3-(4-(4-fluoro-3-methylphenyl)piperazin-1-yl)cyclopent-1-en-1-yl)-7′,8′-dihydro-3′H-spiro[cyclopropane-1,6′-quinazolin]-4′(5′H)-one], the IC50 was in the range of 1 to 500 nM.

On to `Cc1csc(N2CCN([C@H]3C=C(c4nc5c(c(=O)[nH]4)CC4(CC5)CC4)CC3)CC2)n1` [Compound 102, (R)-2′-(3-(4-(4-methylthiazol-2-yl)piperazin-1-yl)cyclopent-1-en-1-yl)-7′,8′-dihydro-3′H-spiro[cyclopropane-1,6′-quinazolin]-4′(5′H)-one], for which the IC50 was in the range of 501 to 5000 nM. Turning to `Cc1ccc(C2CCN([C@H]3C=C(c4nc5c(c(=O)[nH]4)CC4(CC5)CC4)CC3)CC2)cc1` [Compound 77, (R)-2′-(3-(4-(p-tolyl)piperidin-1-yl)cyclopent-1-en-1-yl)-7′,8′-dihydro-3′H-spiro[cyclopropane-1,6′-quinazolin]-4′(5′H)-one], the half-inhibitory concentration (IC50) was 1 to 500 nM. To `O=c1[nH]c(CCCN2CC=C(c3ccccc3)CC2)nc2c1CCC1(CC1)C2` [Compound 17, 2′-(3-(4-phenyl-5,6-dihydropyridin-1(2H)-yl)propyl)-5′,6′-dihydro-3′H-spiro[cyclopropane-1,7′-quinazolin]-4′(8′H)-one] belongs 5000 to 500000 nM; to `Cc1ccc(N2CCN([C@H]3C=C(c4nc5c(c(=O)[nH]4)CC4(CC5)CC4)CC3)CC2)c(F)c1` [Compound 88, (R)-2′-(3-(4-(2-fluoro-4-methylphenyl)piperazin-1-yl)cyclopent-1-en-1-yl)-7′,8′-dihydro-3′H-spiro[cyclopropane-1,6′-quinazolin]-4′(5′H)-one], 1 to 500 nM.

In the case of `O=c1[nH]c(C2=C[C@H](N3CC=C(c4ccc(F)cc4)CC3)CC2)nc2c1CC1(CC2)CC1` [Compound 52, (R)-2′-(3-(4-(4-fluorophenyl)-5,6-dihydropyridin-1 (2H)-yl)cyclopent-1-en-1-yl)-7′,8′-dihydro-3′H-spiro[cyclopropane-1,6′-quinazolin]-4′(5′H)-one], the IC50 was 1 to 500 nM.
